Laboratory results from the NIST ThermoML archive (doi:10.1021/je060411g).
Numbers after ± are expanded uncertainties.

Assay: molar heat capacity at constant pressure
Details: 101.33 kPa

CCC(C)CO (stereo not given) [2-methyl-1-butanol]
Details	molar heat capacity at constant pressure [J/K/mol]
84.68 K, Glass	66.37 ± 1.6
85.32 K, Glass	66.9 ± 1.7
86.62 K, Glass	68.05 ± 1.7
88.13 K, Glass	68.63 ± 1.7
88.55 K, Glass	69.49 ± 1.7
89.15 K, Glass	69.5 ± 1.7
90.45 K, Glass	69.12 ± 2.1
90.85 K, Glass	70.72 ± 2.1
92.36 K, Glass	71.63 ± 2.1
92.5 K, Glass	69.54 ± 2.1
92.77 K, Glass	72.07 ± 2.1
93.04 K, Glass	72.48 ± 2.1
94.27 K, Glass	72.89 ± 2.1
94.29 K, Glass	72.88 ± 2.1
94.69 K, Glass	73.39 ± 2.1
96.19 K, Glass	74.2 ± 2.1
96.22 K, Glass	74.42 ± 2.1
96.61 K, Glass	74.74 ± 2.2
98.11 K, Glass	75.66 ± 2.2
98.15 K, Glass	75.92 ± 2.2
98.53 K, Glass	76.35 ± 2.2
100.03 K, Glass	77.35 ± 2.2
100.07 K, Glass	77.68 ± 2.2
100.45 K, Glass	77.93 ± 2.2
101.96 K, Glass	78.33 ± 2.2
101.99 K, Glass	78.7 ± 2.2
102.38 K, Glass	78.97 ± 2.2
103.89 K, Glass	79.44 ± 2.2
103.92 K, Glass	79.95 ± 2.2
104.32 K, Glass	80.34 ± 2.3
105.82 K, Glass	80.96 ± 2.3
105.85 K, Glass	81.54 ± 2.3
106.25 K, Glass	82 ± 2.3
107.75 K, Glass	82.7 ± 2.3
107.79 K, Glass	83.22 ± 2.3
108.19 K, Glass	83.82 ± 2.3
109.68 K, Glass	84.31 ± 2.3
109.72 K, Glass	84.61 ± 2.3
110.13 K, Glass	85.55 ± 2.4
111.62 K, Glass	86.17 ± 2.4
111.66 K, Glass	86.13 ± 2.4
112.07 K, Glass	87.55 ± 2.4
113.54 K, Glass	88.63 ± 2.4
113.6 K, Glass	88.13 ± 2.4
114.02 K, Glass	89.94 ± 2.4
115.46 K, Glass	92.53 ± 2.5
115.54 K, Glass	91.47 ± 2.5
115.95 K, Glass	93.24 ± 2.5
117.36 K, Glass	100.69 ± 2.7
117.46 K, Glass	98.77 ± 2.6
117.87 K, Glass	98.66 ± 2.6
124.07 K, Liquid	145.49 ± 3.5
124.32 K, Liquid	145.64 ± 3.5
124.62 K, Liquid	145.89 ± 3.5
125.99 K, Liquid	145.72 ± 3.5
126.25 K, Liquid	145.78 ± 3.5
126.56 K, Liquid	145.84 ± 3.5
127.96 K, Liquid	145.9 ± 3.5
128.21 K, Liquid	145.94 ± 3.5
128.53 K, Liquid	145.95 ± 3.5
129.93 K, Liquid	146.02 ± 3.5
130.19 K, Liquid	146.06 ± 3.5
130.5 K, Liquid	146.03 ± 3.5
131.9 K, Liquid	146.08 ± 3.5
132.16 K, Liquid	146.14 ± 3.5
132.47 K, Liquid	146.14 ± 3.5
133.88 K, Liquid	146.23 ± 3.5
134.14 K, Liquid	146.25 ± 3.5
134.45 K, Liquid	146.21 ± 3.5
135.85 K, Liquid	146.27 ± 3.5
136.11 K, Liquid	146.35 ± 3.5
136.42 K, Liquid	146.35 ± 3.5
137.83 K, Liquid	146.45 ± 3.5
138.09 K, Liquid	146.51 ± 3.5
138.4 K, Liquid	146.51 ± 3.5
139.8 K, Liquid	146.64 ± 3.5
140.06 K, Liquid	146.68 ± 3.5
140.37 K, Liquid	146.62 ± 3.5
141.77 K, Liquid	146.82 ± 3.5
142.04 K, Liquid	146.87 ± 3.5
142.35 K, Liquid	146.83 ± 3.5
143.75 K, Liquid	146.95 ± 3.5
144.02 K, Liquid	146.99 ± 3.5
144.32 K, Liquid	146.98 ± 3.5
145.73 K, Liquid	147.13 ± 3.5
145.99 K, Liquid	147.22 ± 3.5
146.3 K, Liquid	147.23 ± 3.5
147.7 K, Liquid	147.38 ± 3.5
147.97 K, Liquid	147.38 ± 3.5
148.27 K, Liquid	147.42 ± 3.5
149.68 K, Liquid	147.55 ± 3.5
149.94 K, Liquid	147.65 ± 3.5
150.25 K, Liquid	147.61 ± 3.5
151.45 K, Liquid	147.59 ± 3.5
151.8 K, Liquid	147.34 ± 3.5
151.92 K, Liquid	147.82 ± 3.5
152.97 K, Liquid	147.67 ± 3.5
153.9 K, Liquid	148.01 ± 3.6
154.95 K, Liquid	148.09 ± 3.6
155.88 K, Liquid	148.33 ± 3.6
156.92 K, Liquid	148.38 ± 3.6
157.86 K, Liquid	148.55 ± 3.6
158.9 K, Liquid	148.61 ± 3.6
159.84 K, Liquid	148.75 ± 3.6
160.88 K, Liquid	148.86 ± 3.6
161.82 K, Liquid	149.02 ± 3.6
162.85 K, Liquid	149.11 ± 3.6
163.8 K, Liquid	149.23 ± 3.6
164.83 K, Liquid	149.31 ± 3.6
165.78 K, Liquid	149.53 ± 3.6
166.81 K, Liquid	149.67 ± 3.6
167.76 K, Liquid	149.85 ± 3.6
168.79 K, Liquid	149.95 ± 3.6
169.74 K, Liquid	150.13 ± 3.6
170.77 K, Liquid	150.21 ± 3.6
171.72 K, Liquid	150.38 ± 3.6
172.75 K, Liquid	150.45 ± 3.6
173.69 K, Liquid	150.67 ± 3.6
174.73 K, Liquid	150.8 ± 3.6
175.67 K, Liquid	150.96 ± 3.6
176.7 K, Liquid	151.12 ± 3.6
177.65 K, Liquid	151.36 ± 3.6
178.68 K, Liquid	151.42 ± 3.6
179.63 K, Liquid	151.66 ± 3.6
180.65 K, Liquid	151.78 ± 3.6
181.61 K, Liquid	151.91 ± 3.6
182.63 K, Liquid	152.05 ± 3.6
183.59 K, Liquid	152.19 ± 3.6
184.61 K, Liquid	152.36 ± 3.6
185.56 K, Liquid	152.59 ± 3.6
186.59 K, Liquid	152.73 ± 3.6
187.54 K, Liquid	152.92 ± 3.6
188.56 K, Liquid	153.02 ± 3.6
189.52 K, Liquid	153.24 ± 3.7
190.54 K, Liquid	153.38 ± 3.7
191.5 K, Liquid	153.55 ± 3.7
192.51 K, Liquid	153.71 ± 3.7
193.48 K, Liquid	153.87 ± 3.7
194.49 K, Liquid	154.12 ± 3.7
195.45 K, Liquid	154.28 ± 3.7
196.47 K, Liquid	154.44 ± 3.7
197.43 K, Liquid	154.67 ± 3.7
198.44 K, Liquid	154.78 ± 3.7
199.4 K, Liquid	155 ± 3.7
200.41 K, Liquid	155.18 ± 3.7
201.38 K, Liquid	155.44 ± 3.7
202.39 K, Liquid	155.73 ± 3.7
203.35 K, Liquid	155.9 ± 3.7
204.36 K, Liquid	156.25 ± 3.7
205.33 K, Liquid	156.37 ± 3.7
206.33 K, Liquid	156.66 ± 3.7
207.3 K, Liquid	156.95 ± 3.7
208.31 K, Liquid	157.5 ± 3.7
209.28 K, Liquid	157.69 ± 3.8
210.28 K, Liquid	158.2 ± 3.8
211.25 K, Liquid	158.49 ± 3.8
212.25 K, Liquid	158.88 ± 3.8
213.22 K, Liquid	159.25 ± 3.8
214.23 K, Liquid	159.75 ± 3.8
215.2 K, Liquid	160.09 ± 3.8
216.21 K, Liquid	160.71 ± 3.8
217.17 K, Liquid	160.99 ± 3.8
218.18 K, Liquid	161.49 ± 3.8
219.15 K, Liquid	161.82 ± 3.8
220.15 K, Liquid	162.39 ± 3.8
221.13 K, Liquid	162.7 ± 3.9
222.13 K, Liquid	163.26 ± 3.9
223.11 K, Liquid	163.61 ± 3.9
224.1 K, Liquid	164.01 ± 3.9
225.09 K, Liquid	164.48 ± 3.9
226.08 K, Liquid	164.73 ± 3.9
227.07 K, Liquid	165.18 ± 3.9
228.06 K, Liquid	165.39 ± 3.9
229.05 K, Liquid	165.83 ± 3.9
230.04 K, Liquid	166.09 ± 3.9
231.03 K, Liquid	166.52 ± 3.9
232.02 K, Liquid	166.86 ± 3.9
233.01 K, Liquid	167.29 ± 3.9
233.99 K, Liquid	167.66 ± 4
234.99 K, Liquid	168.13 ± 4
235.97 K, Liquid	168.53 ± 4
236.96 K, Liquid	169 ± 4
237.94 K, Liquid	169.41 ± 4
238.94 K, Liquid	169.88 ± 4
239.92 K, Liquid	170.34 ± 4
240.92 K, Liquid	170.8 ± 4
241.89 K, Liquid	171.24 ± 4
242.89 K, Liquid	171.69 ± 4
243.86 K, Liquid	172.18 ± 4
244.85 K, Liquid	172.64 ± 4
245.82 K, Liquid	173.22 ± 4.1
246.81 K, Liquid	173.63 ± 4.1
247.77 K, Liquid	174.23 ± 4.1
248.76 K, Liquid	174.73 ± 4.1
249.72 K, Liquid	175.28 ± 4.1
250.7 K, Liquid	175.88 ± 4.1
251.66 K, Liquid	176.43 ± 4.1
252.64 K, Liquid	177.14 ± 4.1
253.59 K, Liquid	177.16 ± 4.1
254.57 K, Liquid	177.34 ± 4.1
255.52 K, Liquid	177.97 ± 4.2
256.5 K, Liquid	178.62 ± 4.2
257.44 K, Liquid	179.24 ± 4.2
258.43 K, Liquid	179.85 ± 4.2
259.36 K, Liquid	180.45 ± 4.2
260.34 K, Liquid	181.06 ± 4.2
261.27 K, Liquid	181.7 ± 4.2
262.25 K, Liquid	182.25 ± 4.2
263.18 K, Liquid	182.89 ± 4.2
264.15 K, Liquid	183.6 ± 4.3
265.08 K, Liquid	184.25 ± 4.3
266.04 K, Liquid	184.88 ± 4.3
266.97 K, Liquid	185.71 ± 4.3
267.93 K, Liquid	186.53 ± 4.3
268.85 K, Liquid	187.04 ± 4.3
269.81 K, Liquid	187.76 ± 4.3
270.72 K, Liquid	188.25 ± 4.4
271.68 K, Liquid	189.05 ± 4.4
272.59 K, Liquid	189.75 ± 4.4
273.55 K, Liquid	190.39 ± 4.4
274.46 K, Liquid	191.2 ± 4.4
275.41 K, Liquid	191.82 ± 4.4
276.31 K, Liquid	192.56 ± 4.5
277.26 K, Liquid	193.3 ± 4.5
278.16 K, Liquid	193.91 ± 4.5
279.11 K, Liquid	194.8 ± 4.5
280 K, Liquid	195.48 ± 4.5
280.94 K, Liquid	196.42 ± 4.5
281.83 K, Liquid	197.02 ± 4.5
282.77 K, Liquid	197.86 ± 4.5
283.66 K, Liquid	198.58 ± 4.6
284.6 K, Liquid	199.41 ± 4.6
285.47 K, Liquid	200.28 ± 4.6
286.41 K, Liquid	201.04 ± 4.6
287.29 K, Liquid	201.86 ± 4.6
288.22 K, Liquid	202.76 ± 4.7
289.09 K, Liquid	203.46 ± 4.7
290.02 K, Liquid	204.47 ± 4.7
290.89 K, Liquid	205.13 ± 4.7
291.81 K, Liquid	206.07 ± 4.7
292.67 K, Liquid	206.55 ± 4.7
293.6 K, Liquid	207.65 ± 4.8
294.46 K, Liquid	208.23 ± 4.8
295.38 K, Liquid	209.45 ± 4.8
296.23 K, Liquid	210.26 ± 4.8
297.15 K, Liquid	211.14 ± 4.8
298 K, Liquid	211.98 ± 4.8
298.92 K, Liquid	212.94 ± 4.9
299.76 K, Liquid	213.73 ± 4.9
300.68 K, Liquid	214.69 ± 4.9
